In paper PMC11631053, “A receptor-based assay to study the sweet and bitter tastes of sweeteners and binary sweet blends: the SWEET project” (Chemical Senses, 2024):
Several values for one entry are separate records, joined by “and”; a condition that tells them apart may be missing. Identical values can stand only once.

What was measured:
[1] = test system: 25 human TAS2Rs; assay: Screen of the 25 human TAS2Rs, calcium mobilization in HEK293T-Gα16gust44 cells; type: cell-based; conditions: for number of TAS2Rs activated: of the 25 human TAS2Rs; for activation of any TAS2Rs: at the maximal tested concentration (Table 4)
Method: The activation of the 25 human TAS2Rs by the 9 selected sweeteners (excluding sucrose) was examined by using HEK293T-Gα16gust44 cells. Cellular responses were measured after cell stimulation with various concentrations of the sweeteners.

[2] = target: T1, TAS2R8 (Homo sapiens, UniProt Q9NYW2); assay: Calcium mobilization assay, HEK293T-Gα16gust44 cells expressing TAS2R8; conditions: maximal concentration tested: sucralose 100 mM, neotame 30 µM, Ace-K 300 mM, RebA 4 mM, RebM 4 mM, mogroside V 5 mM, erythritol 200 mM, D-allulose 500 mM, thaumatin 100 mM
T1 sequence (Q9NYW2 1-309): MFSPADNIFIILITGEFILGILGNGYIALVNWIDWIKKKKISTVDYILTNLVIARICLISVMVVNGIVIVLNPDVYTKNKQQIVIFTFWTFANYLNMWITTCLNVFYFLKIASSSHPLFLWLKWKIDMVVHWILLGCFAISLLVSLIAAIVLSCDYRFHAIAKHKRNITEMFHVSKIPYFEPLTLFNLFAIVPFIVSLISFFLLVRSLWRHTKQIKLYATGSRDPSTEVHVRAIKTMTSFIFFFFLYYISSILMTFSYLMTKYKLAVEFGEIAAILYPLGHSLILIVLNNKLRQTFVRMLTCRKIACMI
Method: (§1) Different concentration ranges were tested depending on the injected sweet compound. […] All of the concentration-receptor combinations were measured in triplicate, and each experiment was repeated at least 3 times. The Ca^2+ change was expressed as a fractional change in fluorescent light intensity: ΔF/F = (F − F0)/F0, where F was the fluorescent light intensity at each point, and F0 was the value of fluorescent light emitted prior to stimulus application. To calculate dose–response relationships, the changes in fluorescence upon stimulus application were averaged, mock-subtracted and baseline-corrected. The resulting obtained dose–response data were adjusted by using a 4-parameter logistic equation. The half-maximal effective concentration (EC50) was calculated by using SigmaPlot software (Systat Software, San Jose, CA, USA) as described in supplemental Supplementary Figs. S1, S2, and S3.

[3] = target: T2, TAS2R14 (Homo sapiens, UniProt Q9NYV8); assay: Calcium mobilization assay, HEK293T-Gα16gust44 cells expressing TAS2R14; conditions: maximal concentration tested: sucralose 100 mM, neotame 30 µM, Ace-K 300 mM, RebA 4 mM, RebM 4 mM, mogroside V 5 mM, erythritol 200 mM, D-allulose 500 mM, thaumatin 100 mM
T2 sequence (Q9NYV8 1-317): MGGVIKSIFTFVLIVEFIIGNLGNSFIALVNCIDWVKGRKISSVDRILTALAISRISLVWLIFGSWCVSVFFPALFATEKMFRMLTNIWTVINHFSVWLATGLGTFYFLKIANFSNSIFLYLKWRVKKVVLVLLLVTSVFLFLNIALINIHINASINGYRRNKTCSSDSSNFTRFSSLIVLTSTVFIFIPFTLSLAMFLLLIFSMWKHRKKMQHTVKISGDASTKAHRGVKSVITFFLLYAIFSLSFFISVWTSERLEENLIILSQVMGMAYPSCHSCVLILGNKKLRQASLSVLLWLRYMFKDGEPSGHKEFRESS
Method: (§2) Different concentration ranges were tested depending on the injected sweet compound. […] All of the concentration-receptor combinations were measured in triplicate, and each experiment was repeated at least 3 times. The Ca^2+ change was expressed as a fractional change in fluorescent light intensity: ΔF/F = (F − F0)/F0, where F was the fluorescent light intensity at each point, and F0 was the value of fluorescent light emitted prior to stimulus application. To calculate dose–response relationships, the changes in fluorescence upon stimulus application were averaged, mock-subtracted and baseline-corrected. The resulting obtained dose–response data were adjusted by using a 4-parameter logistic equation.

[4] = target: T3, TAS2R20 (Homo sapiens, UniProt P59543); assay: Calcium mobilization assay, HEK293T-Gα16gust44 cells expressing TAS2R20; conditions: maximal concentration tested: sucralose 100 mM, neotame 30 µM, Ace-K 300 mM, RebA 4 mM, RebM 4 mM, mogroside V 5 mM, erythritol 200 mM, D-allulose 500 mM, thaumatin 100 mM
T3 sequence (P59543 1-309): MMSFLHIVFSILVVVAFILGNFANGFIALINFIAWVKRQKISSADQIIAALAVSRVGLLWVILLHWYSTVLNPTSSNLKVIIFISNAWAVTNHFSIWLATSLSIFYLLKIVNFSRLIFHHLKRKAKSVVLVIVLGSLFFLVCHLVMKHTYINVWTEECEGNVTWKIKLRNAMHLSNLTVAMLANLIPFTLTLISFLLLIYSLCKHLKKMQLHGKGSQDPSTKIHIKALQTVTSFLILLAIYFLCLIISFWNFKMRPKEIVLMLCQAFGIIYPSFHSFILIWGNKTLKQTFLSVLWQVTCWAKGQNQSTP
Method: as §2

[5] = target: T4, TAS2R38 (Homo sapiens, UniProt P59533); assay: Calcium mobilization assay, HEK293T-Gα16gust44 cells expressing TAS2R38; conditions: maximal concentration tested: sucralose 100 mM, neotame 30 µM, Ace-K 300 mM, RebA 4 mM, RebM 4 mM, mogroside V 5 mM, erythritol 200 mM, D-allulose 500 mM, thaumatin 100 mM
T4 sequence (P59533 1-333): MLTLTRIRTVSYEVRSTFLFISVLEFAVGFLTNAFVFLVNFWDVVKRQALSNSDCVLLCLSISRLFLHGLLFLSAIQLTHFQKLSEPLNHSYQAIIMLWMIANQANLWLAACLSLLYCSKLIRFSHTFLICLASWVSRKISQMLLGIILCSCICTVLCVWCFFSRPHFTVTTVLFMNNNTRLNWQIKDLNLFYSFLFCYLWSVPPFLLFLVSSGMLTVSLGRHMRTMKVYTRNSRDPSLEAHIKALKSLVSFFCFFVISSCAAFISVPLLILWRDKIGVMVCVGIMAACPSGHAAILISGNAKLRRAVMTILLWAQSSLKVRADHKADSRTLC
Method: as §2

[6] = target: T5, TAS2R39 (Homo sapiens, UniProt P59534); assay: Calcium mobilization assay, HEK293T-Gα16gust44 cells expressing TAS2R39; conditions: maximal concentration tested: sucralose 100 mM, neotame 30 µM, Ace-K 300 mM, RebA 4 mM, RebM 4 mM, mogroside V 5 mM, erythritol 200 mM, D-allulose 500 mM, thaumatin 100 mM
T5 sequence (P59534 1-338): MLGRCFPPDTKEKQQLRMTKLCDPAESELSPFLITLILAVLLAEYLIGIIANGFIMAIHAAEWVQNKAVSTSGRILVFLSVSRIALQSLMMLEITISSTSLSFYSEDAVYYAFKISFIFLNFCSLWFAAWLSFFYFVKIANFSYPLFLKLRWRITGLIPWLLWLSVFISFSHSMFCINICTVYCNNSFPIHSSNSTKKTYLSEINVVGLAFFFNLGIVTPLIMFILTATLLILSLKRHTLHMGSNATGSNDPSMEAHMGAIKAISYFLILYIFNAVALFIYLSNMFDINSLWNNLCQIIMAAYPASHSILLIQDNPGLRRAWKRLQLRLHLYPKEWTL
Method: as §2

[7] = target: T6, TAS2R46 (Homo sapiens, UniProt P59540); assay: Calcium mobilization assay, HEK293T-Gα16gust44 cells expressing TAS2R46; conditions: for Response of TAS2R46: maximal concentration tested: sucralose 100 mM, neotame 30 µM, Ace-K 300 mM, RebA 4 mM, RebM 4 mM, mogroside V 5 mM, erythritol 200 mM, D-allulose 500 mM, thaumatin 100 mM
T6 sequence (P59540 1-309): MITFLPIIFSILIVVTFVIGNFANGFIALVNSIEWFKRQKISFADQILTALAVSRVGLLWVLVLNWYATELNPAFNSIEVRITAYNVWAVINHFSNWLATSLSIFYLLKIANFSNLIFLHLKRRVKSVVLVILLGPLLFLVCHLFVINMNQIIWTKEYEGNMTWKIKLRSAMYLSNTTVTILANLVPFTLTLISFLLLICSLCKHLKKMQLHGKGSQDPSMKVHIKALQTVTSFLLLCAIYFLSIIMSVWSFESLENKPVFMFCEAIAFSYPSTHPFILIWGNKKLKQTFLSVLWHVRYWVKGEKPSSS
Method: as §2

[8] = target: T7, TAS2R50 (Homo sapiens, UniProt P59544); assay: Calcium mobilization assay, HEK293T-Gα16gust44 cells expressing TAS2R50; conditions: maximal concentration tested: sucralose 100 mM, neotame 30 µM, Ace-K 300 mM, RebA 4 mM, RebM 4 mM, mogroside V 5 mM, erythritol 200 mM, D-allulose 500 mM, thaumatin 100 mM
T7 sequence (P59544 1-299): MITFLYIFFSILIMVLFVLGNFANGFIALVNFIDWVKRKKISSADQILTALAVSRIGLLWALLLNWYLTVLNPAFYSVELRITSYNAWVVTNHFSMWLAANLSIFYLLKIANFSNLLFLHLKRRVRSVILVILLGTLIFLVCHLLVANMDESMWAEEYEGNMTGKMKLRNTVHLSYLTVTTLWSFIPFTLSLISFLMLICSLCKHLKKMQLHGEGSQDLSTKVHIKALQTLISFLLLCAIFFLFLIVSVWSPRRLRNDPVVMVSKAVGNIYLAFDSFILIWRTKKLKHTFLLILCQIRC
Method: as §1

| Molecule | number of TAS2Rs activated [1] | Response of TAS2R8 [2] | Response of TAS2R14 [3] | Response of TAS2R20 [4] | Response of TAS2R38 [5] | Response of TAS2R39 [6] | EC50 ([7]; TAS2R46 EC50) | Response of TAS2R46 [7] | Response of TAS2R50 [8] | activation of any TAS2Rs [1] |
| --- | --- | --- | --- | --- | --- | --- | --- | --- | --- | --- |
| OC[C@H]1O[C@H](O[C@]2(CCl)O[C@H](CCl)[C@@H](O)[C@@H]2O)[C@H](O)[C@@H](O)[C@H]1Cl [Sucralose, sucralose] | 3 | − | − | − | − | − | 3 mM and ≥ 3 mM | #^a | − |  |
| COC(=O)[C@H](Cc1ccccc1)NC(=O)[C@H](CC(=O)O)NCCC(C)(C)C [Neotame] |  | − | − | − | − | − |  | − | − | Neither neotame, RebM, erythritol, or thaumatin activated any TAS2Rs |
| CC1=CC(=O)NS(=O)(=O)O1 [Ace-K, acesulfame-K] |  | − | − | − | − | − |  | − | − |  |
| thaumatin |  | − | − | − | − | − |  | − | − | Neither neotame, RebM, erythritol, or thaumatin activated any TAS2Rs |
| C=C1C[C@@]23CC[C@H]4[C@@](C)(CCC[C@@]4(C)C(=O)O[C@@H]4O[C@H](CO)[C@@H](O)[C@H](O[C@@H]5O[C@H](CO)[C@@H](O)[C@H](O)[C@H]5O)[C@H]4O[C@@H]4O[C@H](CO)[C@@H](O)[C@H](O)[C@H]4O)[C@@H]2CC[C@]1(O[C@@H]1O[C@H](CO)[C@@H](O)[C@H](O[C@@H]2O[C@H](CO)[C@@H](O)[C@H](O)[C@H]2O)[C@H]1O[C@@H]1O[C@H](CO)[C@@H](O)[C@H](O)[C@H]1O)C3 [RebM, Rebaudioside M] |  | − | − | − | − | − |  | − | − | Neither neotame, RebM, erythritol, or thaumatin activated any TAS2Rs |
| O=C(CO)[C@H](O)[C@H](O)[C@H](O)CO [D-allulose] | 7 | − | + | − | + | − |  | − | − |  |
| C[C@H](CC[C@@H](O[C@@H]1O[C@H](CO[C@@H]2O[C@H](CO)[C@@H](O)[C@H](O)[C@H]2O)[C@@H](O)[C@H](O)[C@H]1O[C@@H]1O[C@H](CO)[C@@H](O)[C@H](O)[C@H]1O)C(C)(C)O)[C@H]1CC[C@@]2(C)[C@@H]3CC=C4[C@@H](CC[C@H](O[C@@H]5O[C@H](CO[C@@H]6O[C@H](CO)[C@@H](O)[C@H](O)[C@H]6O)[C@@H](O)[C@H](O)[C@H]5O)C4(C)C)[C@]3(C)[C@H](O)C[C@]12C [Mogroside V, mogroside V] | 2 | − | − | − | + | − |  | − | − |  |
| OC[C@@H](O)[C@@H](O)CO [Erythritol, erythritol] |  | − | − | − | − | − |  | − | − | Neither neotame, RebM, erythritol, or thaumatin activated any TAS2Rs |
